Measurements published in ChEMBL document CHEMBL4507267 (2021).

Columns and labels:
[1] = test system: Tyrosine-protein kinase ABL1 (Homo sapiens), P00519 [M351T]; settings: Compound concentration 1000.0 nM
[2] = target: Activin receptor type-1B (Homo sapiens) (UniProt P36896); settings: Compound concentration 1000.0 nM
[3] = test system: Phosphatidylinositol 4,5-bisphosphate 3-kinase catalytic subunit alpha isoform (Homo sapiens), P42336 [M1043I]; settings: Compound concentration 1000.0 nM
[4] = target: 5-hydroxytryptamine receptor 1A (Homo sapiens) (UniProt P08908); settings: Compound concentration 10.0 uM
[5] = target: Tyrosine-protein kinase Lck (Homo sapiens) (UniProt P06239); settings: Compound concentration 1000.0 nM
[6] = target: Serine/threonine-protein kinase pim-3 (Homo sapiens) (UniProt Q86V86); settings: Compound concentration 1000.0 nM
[7] = target: Activated CDC42 kinase 1 (Homo sapiens) (UniProt Q07912); settings: Compound concentration 1000.0 nM
[8] = target: Calcium/calmodulin-dependent protein kinase type 1 (Homo sapiens) (UniProt Q14012); settings: Compound concentration 1000.0 nM
Calcium/calmodulin-dependent protein kinase type 1 (Homo sapiens), sequence (Q14012 whole entry, looked up): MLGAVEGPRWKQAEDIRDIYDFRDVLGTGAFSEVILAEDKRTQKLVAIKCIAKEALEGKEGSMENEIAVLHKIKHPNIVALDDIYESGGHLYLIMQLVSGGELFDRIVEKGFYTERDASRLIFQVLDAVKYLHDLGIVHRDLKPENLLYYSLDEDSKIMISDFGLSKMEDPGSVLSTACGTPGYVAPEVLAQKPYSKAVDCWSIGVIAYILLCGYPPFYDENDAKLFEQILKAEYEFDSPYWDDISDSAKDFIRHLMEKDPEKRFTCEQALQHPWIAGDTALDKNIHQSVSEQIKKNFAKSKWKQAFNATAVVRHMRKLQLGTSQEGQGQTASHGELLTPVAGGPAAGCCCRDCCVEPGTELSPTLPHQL

[9] = test system: Tyrosine-protein kinase ABL1 (Homo sapiens), P00519 [Y253F]; settings: Compound concentration 1000.0 nM
[10] = test system: Tyrosine-protein kinase ABL1 (Homo sapiens), P00519 [F317I]; settings: Compound concentration 1000.0 nM
[11] = test system: Tyrosine-protein kinase ABL1 (Homo sapiens), P00519 [Q252H]; settings: Compound concentration 1000.0 nM
[12] = test system: Tyrosine-protein kinase ABL1 (Homo sapiens), P00519 [H396P]; settings: Compound concentration 1000.0 nM
[13] = test system: Mast/stem cell growth factor receptor Kit (Homo sapiens), P10721 [D816H]; settings: Compound concentration 1000.0 nM
Mast/stem cell growth factor receptor Kit (Homo sapiens), P10721 [D816H], sequence (P10721 whole entry D816H): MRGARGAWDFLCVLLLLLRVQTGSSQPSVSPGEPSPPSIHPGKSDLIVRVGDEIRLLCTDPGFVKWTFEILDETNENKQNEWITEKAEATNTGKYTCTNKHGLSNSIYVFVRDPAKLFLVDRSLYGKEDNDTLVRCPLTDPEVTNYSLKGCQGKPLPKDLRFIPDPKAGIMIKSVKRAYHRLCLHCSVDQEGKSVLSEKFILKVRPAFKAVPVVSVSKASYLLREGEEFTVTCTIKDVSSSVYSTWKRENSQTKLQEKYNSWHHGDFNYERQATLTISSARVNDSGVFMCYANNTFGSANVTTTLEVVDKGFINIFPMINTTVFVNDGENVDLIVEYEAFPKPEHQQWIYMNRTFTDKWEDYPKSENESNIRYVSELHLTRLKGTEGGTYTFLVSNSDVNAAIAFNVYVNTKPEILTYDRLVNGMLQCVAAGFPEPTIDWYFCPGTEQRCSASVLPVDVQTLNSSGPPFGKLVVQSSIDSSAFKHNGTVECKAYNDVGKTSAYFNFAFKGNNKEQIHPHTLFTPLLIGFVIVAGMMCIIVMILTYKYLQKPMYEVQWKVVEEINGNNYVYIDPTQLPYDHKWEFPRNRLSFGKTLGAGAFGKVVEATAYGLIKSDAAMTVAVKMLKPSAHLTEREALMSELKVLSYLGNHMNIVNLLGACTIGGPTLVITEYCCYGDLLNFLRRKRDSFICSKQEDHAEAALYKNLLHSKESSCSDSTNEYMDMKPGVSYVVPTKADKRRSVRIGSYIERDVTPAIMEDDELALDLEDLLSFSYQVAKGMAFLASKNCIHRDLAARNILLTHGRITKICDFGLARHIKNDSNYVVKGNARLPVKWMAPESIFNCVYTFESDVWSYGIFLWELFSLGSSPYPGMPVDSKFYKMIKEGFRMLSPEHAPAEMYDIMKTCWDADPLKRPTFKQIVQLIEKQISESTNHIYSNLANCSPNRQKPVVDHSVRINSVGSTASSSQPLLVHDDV

[14] = target: Myosin light chain kinase, smooth muscle (Homo sapiens) (UniProt Q15746); settings: Compound concentration 1000.0 nM
[15] = test system: Proto-oncogene tyrosine-protein kinase receptor Ret (Homo sapiens), P07949 [V804L]; settings: Compound concentration 1000.0 nM
[16] = target: Ephrin type-A receptor 4 (Homo sapiens) (UniProt P54764); settings: Compound concentration 1000.0 nM
[17] = target: D(3) dopamine receptor (Homo sapiens) (UniProt P35462); settings: Compound concentration 10.0 uM
[18] = target: Mitogen-activated protein kinase kinase kinase 12 (Homo sapiens) (UniProt Q12852); settings: Compound concentration 1000.0 nM
[19] = target: Receptor-type tyrosine-protein kinase FLT3 (Homo sapiens) (UniProt P36888); settings: Compound concentration 1000.0 nM
[20] = test system: Mast/stem cell growth factor receptor Kit (Homo sapiens), P10721 [V559D]; settings: Compound concentration 1000.0 nM
Mast/stem cell growth factor receptor Kit (Homo sapiens), P10721 [V559D], sequence (P10721 whole entry V559D): as the sequence (P10721 whole entry D816H) above, with V559D, H816D counted along it

[21] = target: Histamine H4 receptor (Homo sapiens) (UniProt Q9H3N8); settings: Compound concentration 10.0 uM
[22] = target: Serine/threonine-protein kinase Nek3 (Homo sapiens) (UniProt P51956); settings: Compound concentration 1000.0 nM
[23] = target: Serine/threonine-protein kinase DCLK2 (Homo sapiens) (UniProt Q8N568); settings: Compound concentration 1000.0 nM
[24] = target: Serine/threonine-protein kinase PAK 4 (Homo sapiens) (UniProt O96013); settings: Compound concentration 1000.0 nM
[25] = target: Beta-2 adrenergic receptor (Homo sapiens) (UniProt P07550); settings: Compound concentration 10.0 uM
[26] = target: Serine/threonine-protein kinase SIK2 (Homo sapiens) (UniProt Q9H0K1); settings: Compound concentration 1000.0 nM
[27] = target: Cyclin-dependent kinase 2 homolog (Plasmodium falciparum (isolate 3D7)) (UniProt P61075); settings: Compound concentration 1000.0 nM
[28] = target: Serine/threonine-protein kinase ULK1 (Homo sapiens) (UniProt O75385); settings: Compound concentration 1000.0 nM
[29] = target: Dual specificity mitogen-activated protein kinase kinase 2 (Homo sapiens) (UniProt P36507); settings: Compound concentration 1000.0 nM
Dual specificity mitogen-activated protein kinase kinase 2 (Homo sapiens), sequence (P36507 whole entry): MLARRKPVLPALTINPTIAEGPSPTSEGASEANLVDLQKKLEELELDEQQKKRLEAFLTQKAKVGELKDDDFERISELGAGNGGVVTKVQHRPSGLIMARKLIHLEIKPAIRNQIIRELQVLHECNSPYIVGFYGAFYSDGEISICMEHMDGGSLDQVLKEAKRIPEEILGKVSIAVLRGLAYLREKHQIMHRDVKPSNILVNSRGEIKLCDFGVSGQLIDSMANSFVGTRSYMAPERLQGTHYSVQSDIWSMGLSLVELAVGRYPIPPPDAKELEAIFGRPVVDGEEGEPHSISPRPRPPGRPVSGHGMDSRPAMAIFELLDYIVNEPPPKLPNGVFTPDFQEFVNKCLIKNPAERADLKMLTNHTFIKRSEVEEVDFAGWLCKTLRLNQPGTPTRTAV

[30] = test system: Mast/stem cell growth factor receptor Kit (Homo sapiens), P10721 [D816V]; settings: Compound concentration 1000.0 nM
[31] = target: Ephrin type-A receptor 5 (Homo sapiens) (UniProt P54756); settings: Compound concentration 1000.0 nM
[32] = target: Phosphatidylinositol 3-kinase C2 domain-containing subunit gamma (Homo sapiens) (UniProt O75747); settings: Compound concentration 1000.0 nM
[33] = target: 5-hydroxytryptamine receptor 6 (Homo sapiens) (UniProt P50406); settings: Compound concentration 10.0 uM
5-hydroxytryptamine receptor 6 (Homo sapiens), sequence (P50406 whole entry): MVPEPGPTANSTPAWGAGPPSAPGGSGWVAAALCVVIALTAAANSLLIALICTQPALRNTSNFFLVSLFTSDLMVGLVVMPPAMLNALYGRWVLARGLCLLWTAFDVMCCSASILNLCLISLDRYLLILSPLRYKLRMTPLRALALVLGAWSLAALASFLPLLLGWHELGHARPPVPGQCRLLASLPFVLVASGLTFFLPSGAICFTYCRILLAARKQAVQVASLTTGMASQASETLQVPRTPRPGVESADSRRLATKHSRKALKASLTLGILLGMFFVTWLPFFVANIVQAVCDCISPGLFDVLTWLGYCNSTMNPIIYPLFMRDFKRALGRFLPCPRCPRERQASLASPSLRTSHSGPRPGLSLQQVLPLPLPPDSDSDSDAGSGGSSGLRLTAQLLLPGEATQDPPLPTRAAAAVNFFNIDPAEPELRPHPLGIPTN

[34] = target: Vascular endothelial growth factor receptor 1 (Homo sapiens) (UniProt P17948); settings: Compound concentration 1000.0 nM
[35] = target: Fibroblast growth factor receptor 3 (Homo sapiens) (UniProt P22607); settings: Compound concentration 1000.0 nM
[36] = target: Ephrin type-B receptor 1 (Homo sapiens) (UniProt P54762); settings: Compound concentration 1000.0 nM
[37] = target: Vascular endothelial growth factor receptor 3 (Homo sapiens) (UniProt P35916); settings: Compound concentration 1000.0 nM
[38] = test system: Phosphatidylinositol 4,5-bisphosphate 3-kinase catalytic subunit alpha isoform (Homo sapiens), P42336 [H1047L]; settings: Compound concentration 1000.0 nM
[39] = target: Dual specificity mitogen-activated protein kinase kinase 6 (Homo sapiens) (UniProt P52564); settings: Compound concentration 1000.0 nM
[40] = test system: Tyrosine-protein kinase ABL1 (Homo sapiens), P00519 [T315I]; settings: Compound concentration 1000.0 nM
[41] = target: Dual specificity protein kinase TTK (Homo sapiens) (UniProt P33981); settings: Compound concentration 1000.0 nM
[42] = target: Sodium-dependent dopamine transporter (Homo sapiens) (UniProt Q01959); settings: Compound concentration 10.0 uM
Sodium-dependent dopamine transporter (Homo sapiens), sequence (Q01959 whole entry): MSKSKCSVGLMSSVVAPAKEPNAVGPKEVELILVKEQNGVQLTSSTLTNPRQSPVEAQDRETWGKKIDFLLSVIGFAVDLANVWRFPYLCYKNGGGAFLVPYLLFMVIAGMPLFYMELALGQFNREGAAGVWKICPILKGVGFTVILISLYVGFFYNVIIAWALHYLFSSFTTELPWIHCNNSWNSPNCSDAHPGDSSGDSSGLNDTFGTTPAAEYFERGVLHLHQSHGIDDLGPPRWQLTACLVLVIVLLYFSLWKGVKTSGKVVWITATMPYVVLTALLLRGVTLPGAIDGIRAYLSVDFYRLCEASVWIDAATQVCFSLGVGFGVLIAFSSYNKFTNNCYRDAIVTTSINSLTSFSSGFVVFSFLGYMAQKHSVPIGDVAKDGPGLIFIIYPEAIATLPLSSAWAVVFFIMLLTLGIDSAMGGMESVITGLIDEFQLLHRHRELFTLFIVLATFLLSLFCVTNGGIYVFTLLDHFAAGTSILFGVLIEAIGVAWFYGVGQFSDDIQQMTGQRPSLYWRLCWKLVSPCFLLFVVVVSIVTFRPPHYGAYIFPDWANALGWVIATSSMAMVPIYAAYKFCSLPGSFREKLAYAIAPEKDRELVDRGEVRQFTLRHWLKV

[43] = target: Tyrosine-protein kinase CSK (Homo sapiens) (UniProt P41240); settings: Compound concentration 1000.0 nM
[44] = target: Tyrosine-protein kinase Mer (Homo sapiens) (UniProt Q12866); settings: Compound concentration 1000.0 nM
Tyrosine-protein kinase Mer (Homo sapiens), sequence (Q12866 whole entry): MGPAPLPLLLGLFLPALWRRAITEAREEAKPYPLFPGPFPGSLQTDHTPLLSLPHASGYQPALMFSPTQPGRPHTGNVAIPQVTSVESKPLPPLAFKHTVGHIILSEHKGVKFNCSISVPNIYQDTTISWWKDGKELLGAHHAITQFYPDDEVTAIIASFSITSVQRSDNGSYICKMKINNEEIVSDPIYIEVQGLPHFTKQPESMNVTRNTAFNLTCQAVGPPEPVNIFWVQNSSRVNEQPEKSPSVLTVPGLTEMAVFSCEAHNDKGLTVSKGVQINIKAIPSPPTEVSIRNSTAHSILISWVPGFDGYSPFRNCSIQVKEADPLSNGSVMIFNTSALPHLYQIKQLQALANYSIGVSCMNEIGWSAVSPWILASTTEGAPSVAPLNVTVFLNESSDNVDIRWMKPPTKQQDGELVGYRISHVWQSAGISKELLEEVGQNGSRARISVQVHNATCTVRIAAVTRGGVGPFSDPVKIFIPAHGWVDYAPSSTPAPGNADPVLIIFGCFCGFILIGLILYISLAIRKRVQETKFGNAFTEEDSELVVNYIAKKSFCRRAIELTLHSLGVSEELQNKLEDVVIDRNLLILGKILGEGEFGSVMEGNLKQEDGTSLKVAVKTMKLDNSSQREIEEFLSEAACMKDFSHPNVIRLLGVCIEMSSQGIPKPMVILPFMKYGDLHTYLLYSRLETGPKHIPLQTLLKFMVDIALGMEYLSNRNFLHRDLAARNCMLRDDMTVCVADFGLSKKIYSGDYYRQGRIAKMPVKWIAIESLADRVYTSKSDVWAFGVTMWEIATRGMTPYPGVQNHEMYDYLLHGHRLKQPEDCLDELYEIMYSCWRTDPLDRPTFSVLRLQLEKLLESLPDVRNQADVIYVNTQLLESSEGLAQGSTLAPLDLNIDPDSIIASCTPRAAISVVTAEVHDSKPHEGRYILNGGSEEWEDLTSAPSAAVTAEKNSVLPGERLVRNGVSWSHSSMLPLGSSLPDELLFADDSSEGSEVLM

[45] = target: Dual specificity tyrosine-phosphorylation-regulated kinase 1A (Homo sapiens) (UniProt Q13627); settings: Compound concentration 1000.0 nM

Cc1c(NC(=O)c2cc(C(N)=O)nc3cc(F)ccc23)c(C(F)(F)F)nn1Cc1ccc(C(C)(C)C)cc1 [BAY-588]
inactive: residual activity [1] 100% | residual activity [2] 80% | residual activity [3] 80% | inhibition [4] 18.6% | residual activity [5] 100% | residual activity [6] 100% | residual activity [7] 100% | residual activity [8] 82% | residual activity [9] 100% | residual activity [10] 100% | residual activity [11] 100% | residual activity [12] 100% | residual activity [13] 100% | residual activity [14] 97% | residual activity [15] 83% | residual activity [16] 100% | inhibition [17] 11.9% | residual activity [18] 100% | residual activity [19] 100% | residual activity [20] 95% | inhibition [21] 13% | residual activity [22] 100% | residual activity [23] 83% | residual activity [24] 100% | inhibition [25] 24.1% | residual activity [26] 100% | residual activity [27] 100% | residual activity [28] 98% | residual activity [29] 100% | residual activity [30] 82% | residual activity [31] 74% | residual activity [32] 100% | inhibition [33] -0.431% | residual activity [34] 100% | residual activity [35] 92% | residual activity [36] 86% | residual activity [37] 91% | residual activity [38] 100% | residual activity [39] 92% | residual activity [40] 100% | residual activity [41] 79% | inhibition [42] 14.7% | residual activity [43] 94% | residual activity [44] 86% | residual activity [45] 100%

Cc1c(NC(=O)c2cc(C(N)=O)nc3cc(F)ccc23)c(C(F)(F)F)nn1Cc1ccc(C#N)cc1 [BAY-876]
inactive: residual activity [1] 87% | residual activity [2] 80% | residual activity [3] 91% | inhibition [4] -3.47% | residual activity [5] 98% | residual activity [6] 100% | residual activity [7] 71% | residual activity [8] 100% | residual activity [9] 80% | residual activity [10] 75% | residual activity [11] 81% | residual activity [12] 100% | residual activity [13] 60% | residual activity [14] 65% | residual activity [15] 100% | residual activity [16] 99% | inhibition [17] 1.46% | residual activity [18] 89% | residual activity [19] 83% | residual activity [20] 100% | inhibition [21] 29% | residual activity [22] 74% | residual activity [23] 82% | residual activity [24] 98% | inhibition [25] 21.7% | residual activity [26] 100% | residual activity [27] 91% | residual activity [28] 81% | residual activity [29] 89% | residual activity [30] 88% | residual activity [31] 100% | residual activity [32] 61% | inhibition [33] -0.383% | residual activity [34] 98% | residual activity [35] 99% | residual activity [36] 66% | residual activity [37] 100% | residual activity [38] 88% | residual activity [39] 100% | residual activity [40] 100% | residual activity [41] 95% | inhibition [42] 8.22% | residual activity [43] 100% | residual activity [44] 100% | residual activity [45] 84%
